Our source for the CC50 values is patent US6162810A, “Inadone and tetralone compounds for inhibiting cell proliferation” (The Regents of the University of California, priority 1998, dated 2000).

A value given as a limit tells only on which side of the number the result lay.

One series concerns CEM WT, CEM AB9228, MOLT-4, Jurkat, NALL-1, WI-L2, K562, and HL-60 cells. Nature of the series: Cytotoxicity to various proliferating cell lines (average). In kind it is cell-based, human. As to conditions: Homo sapiens, average TC50 over various proliferating cell lines; read-out: TC50 (the source's name). As for the experimental part: (§1) (B) Similarly, compounds of the invention were tested for their ability to kill CEM WT, CEM AB9228, MOLT-4, Jurkat, NALL-1, WI-L2, K562, and HL-60 cells.
As for `COc1cc2c(cc1OC)C(=O)C(=Cc1ccc(O)c(C(=O)O)c1)CC2` [6,7-dimethoxy-2-(3'-hydrocarboxy-4'-hydroxyphenylmethylene)-1-tetralone], the CC50 is greater than 50 µM.

For `COc1cc2c(cc1OC)C(=O)C(=Cc1cc(OC(F)(F)F)cc(OC(F)(F)F)c1)C2` [5,6-dimethoxy-2-(3',5'-ditrifluoromethoxyphenylmethylene)-1-indanone], the CC50 was greater than 100 µM.

With `COc1cc2c(cc1OC)C(=O)C(=Cc1c(Cl)cc(-c3ccncc3)cc1Cl)C2` [5,6-dimethoxy-2-(2',6'-dichloro-4'-(pyridin-4-yl)phenylmethylene)-1-indanone], the CC50 is 40 µM.

Turning to `O=C1C(=Cc2cccc(O)c2O)CCc2cc(O)c(O)cc21` [6,7-dihydroxy-2-(2',3'-dihydroxyphenylmethylene)-1-tetralone], the CC50 is greater than 50 µM.

In the case of `COc1cc2c(cc1OC)C(=O)C(=Cc1cc(C)cc(C)c1)CC2` [6,7-dimethoxy-2-(3',5'-dimethylphenylmethylene)-1-tetralone], the CC50 turned out to be 4 µM.

On to `COc1cc2c(cc1OC)C(=O)C(=Cc1c(O)cc(I)cc1I)C2` [5,6-dimethoxy-2-(2'-hydroxy-4',6'-diiodophenylmethylene)-1-indanone], for which the CC50 was 18 µM.

Take `COc1cc2c(cc1OC)C(=O)C(=Cc1cc(C)c(OC(=O)CCC(=O)O)c(C)c1)C2` [5,6-dimethoxy-2-(3',5'-dimethyl-4'-O-succinylphenylmethylene)-1-indanone]: the CC50 is 1 µM.

With `O=C1C(=Cc2cc(Cl)cc(Cl)c2)Cc2cc(O)c(O)cc21` [5,6-dihydroxy-2-(3',5'-dichlorophenylmethylene)-1-indanone], the CC50 stood at 30 µM.

As for `COc1cc2c(cc1OC)C(=O)C(=Cc1c(C)cccc1C)CC2` [6,7-dimethoxy-2-(2',6'-dimethylphenylmethylene)-1-tetralone], the CC50 was greater than 50 µM.

On to `COc1cc2c(cc1OC)C(=O)C(=CC1(O)CC(OC)CC(OC)C1)C2` (stereo not drawn) [5,6-dimethoxy-2-(3',5'-dimethoxy-1'-hydroxycyclohexylmethylene)-1-indanone], for which the CC50 amounted to 2 µM.

`COc1cc(C=C2Cc3cc4c(cc3C2=O)OCO4)cc(OC)c1` [5,6-methylenedioxy-2-(3',5'-dimethoxyphenylmethylene)-1-indanone]: the CC50 was greater than 50 µM.

On to `COc1cccc2c1C(=O)C(=Cc1cc(C)c(O)c(C)c1)C2` [7-methoxy-2-(3',5'-dimethyl-4'-hydroxyphenylmethylene)-1-indanone], for which the CC50 turned out to be 51 µM.

Take `COc1cc2c(cc1OC)C(=O)C(=Cc1cc(C)ccc1C)CC2` [6,7-dimethoxy-2-(2',5'-dimethylphenylmethylene)-1-tetralone]: the CC50 turned out to be 5 µM.

Take `COc1ccc2c(c1)C(=O)C(=Cc1cc(C)c(O)c(C)c1)C2` [6-methoxy-2-(3',5'-dimethyl-4'-hydroxyphenylmethylene)-1-indanone]: the CC50 is greater than 50 µM.

On to `O=C1C(=Cc2cc(O)c(O)c(O)c2)CCc2cc(O)c(O)cc21` [6,7-dihydroxy-2-(3',4',5'-trihydroxyphenylmethylene)-1-tetralone], for which the CC50 is 43 µM.

`COc1cc(O)c(C=C2CCc3cc(OC)c(OC)cc3C2=O)c(OC)c1` [6,7-dimethoxy-2-(2',4'-dimethoxy-6'-hydroxyphenylmethylene)-1-tetralone]: the CC50 worked out at 10 µM.

Regarding `COc1ccc(OC)c(C=C2CCc3cc(OC)c(OC)cc3C2=O)c1` [6,7-dimethoxy-2-(2',5'-dimethoxyphenylmethylene)-1-tetralone], the CC50 came out at 11 µM.

As to `COc1cc2c(cc1OC)C(=O)C(=Cc1cc(OC)c(OC)c(OC)c1)CC2` [6,7-dimethoxy-2-(3',4',5'-trimethoxyphenylmethylene)-1-tetralone], the CC50 is greater than 50 µM.

With `COc1cc2c(cc1OC)C(=O)C(=Cc1ccc(N)cc1)CC2` [6,7-dimethoxy-2-(4'-aminophenylmethylene)-1-tetralone], the CC50 is greater than 50 µM.

The series is the same for the next values; noted with them: average TC50 over various proliferating cell lines; read-out: TC50 (the source's name).
“6,7-dimethoxy-2-(4'-(pyridine-N-oxide)phenylmethylene)-1-tetralone”: the CC50 is greater than 50 µM.

Consider “5,6-dimethoxy-2-(3',5'-dimethyl-4'-phosphonoacetylphenylmethylene)-1-indanone”, for which the CC50 is 0.007 µM.

Consider `COc1cc2c(cc1OC)C(=O)C(=Cc1cc(F)cc(F)c1)C2` [5,6-dimethoxy-2-(3',5'-difluorophenylmethylene)-1-indanone (], for which the CC50 amounted to 26 µM.

Another series relates to proliferating cells. Briefly: Ability of further compounds to kill proliferating cells (average). Format: cell-based. As to conditions: average TC50, proliferating cells; read-out: TC50 (the source's name). The protocol:
as §1
(C) Proceeding as described above, further compounds were tested for their ability to kill proliferating cells.
As to `COc1cc2c(cc1OC)C(=O)C(=Cc1cc(Cl)cc(Cl)c1)CC2` [6,7-dimethoxy-2-(3',5'-dichlorophenylmethylene)-1-tetralone], the CC50 was 7 µM.

For `COc1cc(C=C2Cc3cc(OC)ccc3C2=O)cc(OC)c1` [5-methoxy-2-(3',5'-dimethoxyphenylmethylene)-1-indanone], the CC50 was greater than 50 µM.

As to `COc1cc2c(cc1OC)C(=O)C(=Cc1cccc(Cl)c1)CC2` [6,7-dimethoxy-2-(3'-chlorophenylmethylene)-1-tetralone], the CC50 amounted to 9 µM.

Take `COc1cc2c(cc1OC)C(=O)C(=Cc1cc(OC)c(O)c(OC)c1)CC2` [6,7-dimethoxy-2-(3',5'-dimethoxy-4'-hydroxyphenylmethylene)-1-tetralone]: the CC50 is 6 µM.

As to `COc1cc2c(cc1OC)C(=O)C(=Cc1cc(C(F)(F)F)cc(C(F)(F)F)c1)C2` [5,6-dimethoxy-2-(3',5'-ditrifluoromethylphenylmethylene)-1-indanone], the CC50 was greater than 50 µM.

As to `COc1cc2c(cc1OC)C(=O)C(=Cc1cc(C)c(OC(=O)CCC(=O)O)c(C)c1)C2` [5,6-dimethoxy-2-(3',5'-dimethyl-4'-succinophenylmethylene)-1-indanone], the CC50 amounted to 0.07 µM.

For `COc1ccc(C=C2CCc3cc(OC)c(OC)cc3C2=O)c(OC)c1` [6,7-dimethoxy-2-(2',4'-dimethoxyphenylmethylene)-1-tetralone], the CC50 is greater than 50 µM.

Regarding `COc1cc2c(cc1OC)C(=O)C(=Cc1cc(C)c(OC(=O)CP(=O)(O)O)c(C)c1)C2` [5,6-dimethoxy-2-(3',5'-dimethyl-4'-phosphonoacetoxyphenylmethylene)-1-indanone], the CC50 worked out at 11.5 µM.

Consider `COc1cccc(C=C2CCc3cc(OC)c(OC)cc3C2=O)c1` [6,7-dimethoxy-2-(3'-methoxyphenylmethylene)-1-tetralone], for which the CC50 came out at 5 µM.

Take `COC(=O)C(=O)Nc1c(OC)c(OC)cc2c1C(=O)C(=Cc1cc(C)c(O)c(C)c1)C2` [5,6-dimethoxy-7-methoxalylamino-2-(3',5'-dimethyl-4'-hydroxyphenylmethylene)-1-indanone]: the CC50 came to 0.2 µM.

As to `COc1cc2c(cc1OC)C(=O)C(=Cc1cccc([N+](=O)[O-])c1)CC2` [6,7-dimethoxy-2-(3'-nitrophenylmethylene)-1-tetralone], the CC50 is 9 µM.

On to `COc1cc2c(cc1OC)C(=O)C(=Cc1c(OC)cccc1OC)CC2` [6,7-dimethoxy-2-(2',6'-dimethoxyphenylmethylene)-1-tetralone], for which the CC50 is greater than 50 µM.

For `COc1ccccc1C=C1CCc2cc(OC)c(OC)cc2C1=O` [6,7-dimethoxy-2-(2'-methoxyphenylmethylene)-1-tetralone], the CC50 is greater than 50 µM.

As for `COc1cc2c(cc1OC)C(=O)C(=Cc1cc(C)c(OC(C)=O)c(C)c1)C2` [5,6-dimethoxy-2-(3',5'-dimethyl-4'-acetoxyphenylmethylene)-1-indanone], the CC50 is 0.4 µM.
